“And” between values parts separate entries of the source, which are not always exact repeats. Identical values can stand only once.
What was measured:
Test in all cases: Affinity-purification and mass spectrometry (AP-MS) chemical proteomics, all proteins;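 as to Difference: 200 µM free competitor with 20 µM biotin probe overnight in lysate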
Type in all cases: binding
[1] = molecular target: T1, proteins displaced from immobilized biotin-Cmpd 1 pulldowns (U2OS cell lysate) (Homo sapiens, UniProt O43684); conditions: GN=BUB3 (O43684)
T1 construct: endogenous in cells; host or cells: U2OS
Experimental: (§1) The samples for AP-MS were prepared following pulldown procedure as previously described with minor modifications. Briefly, U2OS cells were lysed in RIPA buffer and the cell lysate was equally divided into two groups: (1) DMSO group (control group): the cell lysate was incubated with 20 μM biotin-labeled compound 1; (2) Cpmd 1 group (sample group): the cell lysate was incubated with 20 μM biotin-labeled compound 1 and 200 μM free compound 1. Each group contains three biological replicates. They were incubated overnight at 4 °C, then 30 μL streptavidin beads (Thermo Fisher, 20353) was added and incubated at 4 °C for 1 h. The beads were then washed with RIPA buffer for 3 times, 10 min/time.
(§2) Beads were rinsed twice with 50 mM TEAB, pH 7.55, before eluting proteins with 25 μL of 5% SDS, 50 mM TEAB, pH 7.55. The sample was then centrifuged at 17,000 × g for 10 min to remove any debris. Proteins were reduced with 20 mM TCEP (Thermo Fisher, 77720) and incubated at 65 °C for 30 min. The sample was cooled to room temperature and 1 μL of 0.5 M iodoacetamide acid was added and allowed to react for 20 min in dark. Phosphoric acid (12%, 2.75 μL) was added to the protein solution, followed by adding 165 μL of binding buffer (90% methanol, 100 mM TEAB, pH 7.1). The resulting solution was added to S-Trap spin column (protifi.com) and passed through the column using a bench top centrifuge (30 s spin at 4000 × g). The spin column was washed with 400 μL of binding buffer and centrifuged. This step was repeated two more times. Then trypsin was added to the protein mixture at a mass ratio of 1:25 in 50 mM TEAB, pH 8.0, and the sample was incubated at 37 °C for 4 h. Peptides were eluted with 80 μL of 50 mM TEAB, followed by 80 μL of 0.2% formic acid, and finally 80 μL of 50% acetonitrile, 0.2% formic acid. The combined peptide solution was then dried in a speed vac and resuspended in 2% acetonitrile, 0.1% formic acid, 97.9% water and placed in an autosampler vial.
(§3) Samples were analyzed by nanoLC-MS/MS (nanoRSLC, Thermo Fisher) using an Aurora series (Ion Opticks) reversed phase HPLC column (25 cm length × 75 µm inner diameter) and directly injected to an Orbitrap Eclipse (Thermo Fisher) using a 120 min gradient (mobile phase A = 0.1% formic acid, mobile phase B = 99.9% acetonitrile with 0.1% formic acid; hold 2% B for 5 min, 2–6% B in 0.1 min, 6–25% in 100 min, 25–50% in 15 min) at a flow rate of 350 nL/min. Eluted peptide ions were analyzed using a data-dependent acquisition (DDA) method with resolution settings of 120,000 and 15,000 (at m/z 200) for MS1 and MS2 scans, respectively. DDA-selected peptides were fragmented using stepped high energy collisional dissociation (27, 32, and 37%).
(§4) The data of AP-MS were analyzed as a previously described method with minor modifications. Briefly, the raw MS files were searched with MaxQuant software (version 1.6.1.1, www.maxquant.org)[56] against the UniProt human protein database (www.uniprot.org) concatenated with common contaminants and the decoy database. The mass tolerance for precursor ions was set to 20 ppm and 4.5 ppm for the first and main search, respectively. The cysteine carbamidomethylation was set as fixed modification and methionine oxidation and N-terminal acetylation as variable modifications. Enzyme specificity was set to trypsin and a maximum missed cleavage was set as 2. The 1% false discovery rate (FDR) at both peptide and protein levels was applied for the analysis. Relative protein quantification was based on the label-free quantification incorporated in the MaxQuant software. The iBAQ intensity of proteins was obtained for the control and experimental samples. The missing iBAQ intensity was replaced by a random number, which was calculated from a normal distribution with a width of 0.3 and a downshift of 1.8 defined by Perseus software (version 1.6.5.0). The P-value was calculated by performing two-sample Student’s t-test. […]

[2] = molecular target: T2, proteins displaced from immobilized biotin-Cmpd 1 pulldowns (U2OS cell lysate) (Homo sapiens, UniProt O75683); conditions: GN=SURF6 (O75683)
T2 construct: endogenous in cells; host or cells: U2OS
Experimental: as §1, §2, §3, §4

[3] = molecular target: T3, proteins displaced from immobilized biotin-Cmpd 1 pulldowns (U2OS cell lysate) (Homo sapiens, UniProt P01876); conditions: GN=IGHA1 (P01876)
T3 construct: endogenous in cells; host or cells: U2OS
Experimental: as §1, §2, §3, §4

[4] = molecular target: T4, proteins displaced from immobilized biotin-Cmpd 1 pulldowns (U2OS cell lysate) (Homo sapiens, UniProt P30048); conditions: GN=PRDX3 (P30048)
T4 construct: endogenous in cells; host or cells: U2OS
Experimental: as §1, §2, §3, §4

[5] = molecular target: T5, proteins displaced from immobilized biotin-Cmpd 1 pulldowns (U2OS cell lysate) (Homo sapiens, UniProt P50991); conditions: GN=CCT4 (P50991)
T5 construct: endogenous in cells; host or cells: U2OS
Experimental: as §1, §2, §3, §4

[6] = molecular target: T6, proteins displaced from immobilized biotin-Cmpd 1 pulldowns (U2OS cell lysate) (Homo sapiens, UniProt P62136); conditions: GN=PPP1CA (P62136)
T6 construct: endogenous in cells; host or cells: U2OS
Experimental: as §1, §2, §3, §4

[7] = molecular target: T7, proteins displaced from immobilized biotin-Cmpd 1 pulldowns (U2OS cell lysate) (Homo sapiens, UniProt Q12873); conditions: GN=CHD3 (Q12873)
T7 construct: endogenous in cells; host or cells: U2OS
Experimental: as §1, §2, §3, §4

[8] = molecular target: T8, proteins displaced from immobilized biotin-Cmpd 1 pulldowns (U2OS cell lysate) (Homo sapiens, UniProt Q7Z2W9); conditions: GN=MRPL21 (Q7Z2W9)
T8 construct: endogenous in cells; host or cells: U2OS
Experimental: as §1, §2, §3, §4

[9] = molecular target: T9, proteins displaced from immobilized biotin-Cmpd 1 pulldowns (U2OS cell lysate) (Homo sapiens, UniProt Q9H8H0); conditions: GN=NOL11 (Q9H8H0)
T9 construct: endogenous in cells; host or cells: U2OS
Experimental: as §1, §2, §3, §4

[10] = molecular target: T10, proteins displaced from immobilized biotin-Cmpd 1 pulldowns (U2OS cell lysate) (Homo sapiens, UniProt Q9UH17); conditions: GN=APOBEC3B (Q9UH17)
T10 construct: endogenous in cells; host or cells: U2OS
Experimental: as §1, §2, §3, §4

T3 sequence (P01876 whole entry): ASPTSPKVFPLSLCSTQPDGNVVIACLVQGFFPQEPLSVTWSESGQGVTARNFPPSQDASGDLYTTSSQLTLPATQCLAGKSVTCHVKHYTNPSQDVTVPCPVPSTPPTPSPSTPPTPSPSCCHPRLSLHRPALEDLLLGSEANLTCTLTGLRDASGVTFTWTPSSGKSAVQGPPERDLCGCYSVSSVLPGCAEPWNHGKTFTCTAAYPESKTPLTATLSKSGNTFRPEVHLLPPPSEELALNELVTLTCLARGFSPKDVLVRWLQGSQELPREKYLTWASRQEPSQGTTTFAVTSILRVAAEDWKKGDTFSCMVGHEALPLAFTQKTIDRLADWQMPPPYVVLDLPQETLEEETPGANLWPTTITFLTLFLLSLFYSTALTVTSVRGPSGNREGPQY
T2 sequence (O75683 whole entry): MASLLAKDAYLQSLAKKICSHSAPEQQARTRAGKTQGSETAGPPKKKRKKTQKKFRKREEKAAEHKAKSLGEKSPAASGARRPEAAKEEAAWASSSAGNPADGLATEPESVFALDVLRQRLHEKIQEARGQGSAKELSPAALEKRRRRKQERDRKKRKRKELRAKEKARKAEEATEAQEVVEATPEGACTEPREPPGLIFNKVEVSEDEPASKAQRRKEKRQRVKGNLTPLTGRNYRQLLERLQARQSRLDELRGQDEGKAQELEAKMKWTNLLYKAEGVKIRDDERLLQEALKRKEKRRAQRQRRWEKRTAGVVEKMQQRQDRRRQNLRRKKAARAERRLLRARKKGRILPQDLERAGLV
T5 sequence (P50991 whole entry): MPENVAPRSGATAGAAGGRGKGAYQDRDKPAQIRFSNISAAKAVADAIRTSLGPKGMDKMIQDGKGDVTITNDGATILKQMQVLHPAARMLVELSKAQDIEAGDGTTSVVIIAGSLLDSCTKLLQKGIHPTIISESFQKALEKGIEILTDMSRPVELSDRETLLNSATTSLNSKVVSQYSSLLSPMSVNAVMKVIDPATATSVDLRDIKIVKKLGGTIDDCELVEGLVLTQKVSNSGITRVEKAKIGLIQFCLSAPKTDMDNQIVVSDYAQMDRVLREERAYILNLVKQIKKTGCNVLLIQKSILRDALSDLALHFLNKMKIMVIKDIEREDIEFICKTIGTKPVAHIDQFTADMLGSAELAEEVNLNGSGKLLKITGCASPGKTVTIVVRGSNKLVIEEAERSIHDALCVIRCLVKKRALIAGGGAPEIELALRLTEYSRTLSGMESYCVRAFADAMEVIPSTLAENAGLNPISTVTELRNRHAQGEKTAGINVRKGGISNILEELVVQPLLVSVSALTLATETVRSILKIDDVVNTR
T6 sequence (P62136 whole entry): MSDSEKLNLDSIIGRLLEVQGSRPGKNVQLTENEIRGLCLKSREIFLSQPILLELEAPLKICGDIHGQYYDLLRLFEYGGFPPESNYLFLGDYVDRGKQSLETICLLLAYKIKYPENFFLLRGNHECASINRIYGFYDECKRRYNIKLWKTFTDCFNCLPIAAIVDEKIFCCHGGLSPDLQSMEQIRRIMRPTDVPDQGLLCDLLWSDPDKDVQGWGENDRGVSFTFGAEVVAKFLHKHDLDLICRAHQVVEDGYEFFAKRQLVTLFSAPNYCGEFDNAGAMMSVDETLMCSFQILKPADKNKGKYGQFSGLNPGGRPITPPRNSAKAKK
T1 sequence (O43684 whole entry): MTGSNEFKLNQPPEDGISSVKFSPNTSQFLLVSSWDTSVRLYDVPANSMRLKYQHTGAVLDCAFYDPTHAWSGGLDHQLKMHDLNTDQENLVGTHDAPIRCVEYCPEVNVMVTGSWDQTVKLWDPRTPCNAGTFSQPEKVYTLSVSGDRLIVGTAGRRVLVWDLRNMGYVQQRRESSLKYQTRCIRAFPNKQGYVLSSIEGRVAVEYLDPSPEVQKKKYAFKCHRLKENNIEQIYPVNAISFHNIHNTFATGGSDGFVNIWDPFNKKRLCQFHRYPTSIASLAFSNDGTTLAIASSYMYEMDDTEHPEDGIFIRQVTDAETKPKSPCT
T9 sequence (Q9H8H0 whole entry): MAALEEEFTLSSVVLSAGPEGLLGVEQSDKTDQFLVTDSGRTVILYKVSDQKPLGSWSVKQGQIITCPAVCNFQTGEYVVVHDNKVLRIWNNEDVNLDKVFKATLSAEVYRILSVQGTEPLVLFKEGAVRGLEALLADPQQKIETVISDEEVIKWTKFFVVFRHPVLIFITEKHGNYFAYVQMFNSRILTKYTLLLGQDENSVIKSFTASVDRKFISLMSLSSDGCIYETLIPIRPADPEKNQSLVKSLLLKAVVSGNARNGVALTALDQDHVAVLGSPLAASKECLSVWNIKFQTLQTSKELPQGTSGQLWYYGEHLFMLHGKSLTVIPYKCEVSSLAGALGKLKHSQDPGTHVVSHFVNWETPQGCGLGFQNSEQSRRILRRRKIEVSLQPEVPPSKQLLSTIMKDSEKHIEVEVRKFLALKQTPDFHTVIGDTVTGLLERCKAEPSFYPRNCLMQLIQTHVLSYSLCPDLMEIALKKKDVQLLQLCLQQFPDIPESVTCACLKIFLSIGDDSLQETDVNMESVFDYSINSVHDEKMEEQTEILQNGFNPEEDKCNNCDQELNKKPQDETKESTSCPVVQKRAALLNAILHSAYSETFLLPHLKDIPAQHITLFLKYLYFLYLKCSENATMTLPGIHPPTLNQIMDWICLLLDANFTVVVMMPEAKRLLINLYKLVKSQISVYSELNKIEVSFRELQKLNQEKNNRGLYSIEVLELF
T4 sequence (P30048 62-256): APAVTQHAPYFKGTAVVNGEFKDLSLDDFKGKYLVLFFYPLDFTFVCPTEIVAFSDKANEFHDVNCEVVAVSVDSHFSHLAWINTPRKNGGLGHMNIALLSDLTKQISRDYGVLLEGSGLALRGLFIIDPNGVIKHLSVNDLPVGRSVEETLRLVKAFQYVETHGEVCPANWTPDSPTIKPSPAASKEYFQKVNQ
T7 sequence (Q12873 whole entry): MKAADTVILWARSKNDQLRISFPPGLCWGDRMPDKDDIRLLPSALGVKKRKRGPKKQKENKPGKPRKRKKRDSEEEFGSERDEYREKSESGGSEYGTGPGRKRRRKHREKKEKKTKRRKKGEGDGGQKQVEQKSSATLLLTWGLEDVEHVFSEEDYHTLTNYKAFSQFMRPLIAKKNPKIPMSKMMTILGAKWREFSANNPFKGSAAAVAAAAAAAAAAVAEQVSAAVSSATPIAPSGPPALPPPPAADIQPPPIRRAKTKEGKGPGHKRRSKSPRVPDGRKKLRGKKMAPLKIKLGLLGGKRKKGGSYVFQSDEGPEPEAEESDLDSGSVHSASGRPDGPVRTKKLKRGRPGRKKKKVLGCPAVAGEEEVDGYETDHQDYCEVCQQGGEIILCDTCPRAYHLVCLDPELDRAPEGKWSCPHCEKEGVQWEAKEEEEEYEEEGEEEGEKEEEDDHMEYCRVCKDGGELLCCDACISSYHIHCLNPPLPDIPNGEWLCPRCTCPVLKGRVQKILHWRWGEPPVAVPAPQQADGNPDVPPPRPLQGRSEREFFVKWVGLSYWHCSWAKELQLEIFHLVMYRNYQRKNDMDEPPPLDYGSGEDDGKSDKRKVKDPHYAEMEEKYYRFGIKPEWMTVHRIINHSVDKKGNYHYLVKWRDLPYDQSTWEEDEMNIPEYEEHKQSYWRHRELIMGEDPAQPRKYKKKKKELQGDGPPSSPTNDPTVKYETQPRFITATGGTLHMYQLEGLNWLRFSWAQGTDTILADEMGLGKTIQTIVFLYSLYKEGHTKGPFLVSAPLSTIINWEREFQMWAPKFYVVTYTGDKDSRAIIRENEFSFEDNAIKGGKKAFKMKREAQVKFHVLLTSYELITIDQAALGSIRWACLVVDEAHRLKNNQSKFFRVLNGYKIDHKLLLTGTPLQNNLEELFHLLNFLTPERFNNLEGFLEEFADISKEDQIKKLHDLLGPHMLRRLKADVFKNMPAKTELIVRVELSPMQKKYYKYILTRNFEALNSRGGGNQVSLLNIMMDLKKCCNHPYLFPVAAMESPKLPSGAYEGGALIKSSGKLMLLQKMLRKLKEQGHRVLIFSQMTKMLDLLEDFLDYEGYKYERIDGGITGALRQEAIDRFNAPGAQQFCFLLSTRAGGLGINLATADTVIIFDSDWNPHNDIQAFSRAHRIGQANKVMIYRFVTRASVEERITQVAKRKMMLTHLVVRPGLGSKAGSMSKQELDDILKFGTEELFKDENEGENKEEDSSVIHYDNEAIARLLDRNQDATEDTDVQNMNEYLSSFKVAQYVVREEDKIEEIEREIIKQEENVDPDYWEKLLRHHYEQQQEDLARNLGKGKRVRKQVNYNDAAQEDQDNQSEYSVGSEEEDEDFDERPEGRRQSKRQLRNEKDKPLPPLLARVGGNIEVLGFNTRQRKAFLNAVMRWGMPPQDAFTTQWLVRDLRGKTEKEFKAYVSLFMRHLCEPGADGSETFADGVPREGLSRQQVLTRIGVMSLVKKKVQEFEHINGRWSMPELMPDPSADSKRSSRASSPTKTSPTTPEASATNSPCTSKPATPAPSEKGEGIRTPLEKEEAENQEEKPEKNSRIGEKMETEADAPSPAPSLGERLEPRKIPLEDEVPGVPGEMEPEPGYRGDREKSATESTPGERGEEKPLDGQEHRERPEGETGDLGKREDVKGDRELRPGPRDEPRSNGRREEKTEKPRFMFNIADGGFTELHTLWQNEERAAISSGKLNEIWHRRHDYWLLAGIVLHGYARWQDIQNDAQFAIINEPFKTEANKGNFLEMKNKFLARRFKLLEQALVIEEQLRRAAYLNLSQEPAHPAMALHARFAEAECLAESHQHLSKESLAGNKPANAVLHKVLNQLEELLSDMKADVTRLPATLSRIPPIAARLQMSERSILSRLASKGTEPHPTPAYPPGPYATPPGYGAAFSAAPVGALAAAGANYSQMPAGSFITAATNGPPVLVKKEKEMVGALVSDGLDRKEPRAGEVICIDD

## Cn1c2c(c(=N)c3c1CCC3)CCC2 [Compound 1, 4-methyl-2,3,4,5,6,7-hexahydrodicyclopenta[b,e]pyridin-8(1H)-imine]
[1]; Cmpd minus DMSO, -LOG(P-value) 1.63376
  Difference: 1.137
[1]; replicates 1-3
  iBAQ Cmpd: 19.492 and 19.0748 and 18.4379
[2]; Cmpd minus DMSO, -LOG(P-value) 1.38004
  Difference: 2.68
[2]; replicates 1-3
  iBAQ Cmpd: 19.6513 and 20.3325 and 21.9506
[3]; Cmpd minus DMSO, -LOG(P-value) 0.808053
  Difference: -3.043
[3]; replicates 1-3
  iBAQ Cmpd: 18.0352 and 17.6842 and 20.2605
[4]; Cmpd minus DMSO, -LOG(P-value) 1.19354
  Difference: -0.7441
[4]; replicates 1-3
  iBAQ Cmpd: 16.0313 and 15.2476 and 15.6479
[5]; Cmpd minus DMSO, -LOG(P-value) 0.713793
  Difference: 0.7229
[5]; replicates 1-3
  iBAQ Cmpd: 21.0359 and 20.6692 and 20.6092
[6]; Cmpd minus DMSO, -LOG(P-value) 1.15373
  Difference: 2.296
[6]; replicates 1-3
  iBAQ Cmpd: 15.2178 and 17.9982 and 17.5212
[7]; Cmpd minus DMSO, -LOG(P-value) 0.756951
  Difference: -1.815
[7]; replicates 1-3
  iBAQ Cmpd: 14.8034 and 14.2721 and 13.9438
[8]; Cmpd minus DMSO, -LOG(P-value) 0.745191
  Difference: 1.429
[8]; replicates 1-3
  iBAQ Cmpd: 17.7953 and 15.5869 and 17.7004
[9]; Cmpd minus DMSO, -LOG(P-value) 1.02475
  Difference: -0.9892
[9]; replicates 1-3
  iBAQ Cmpd: 17.1431 and 16.1539 and 16.3373
[10]; Cmpd minus DMSO, -LOG(P-value) 0.938202
  Difference: -0.8112
[10]; replicates 1-3
  iBAQ Cmpd: 21.4277 and 21.5751 and 21.8529

Reference: article PMC9481570, “A small molecule antagonist of SMN disrupts the interaction between SMN and RNAP II” (Nature Communications, 2022)
